Values of other authors, collected in patent US20050238693A1, “Process for the preparation and activation of susbstances and a means of producing same” (priority 2002, published 2005).

Test system: bone loss
Conditions: 400 mg dose twice a day; women relatively soon after menopause

[Ca] [Calcium]
bone loss and bone density in spine, femoral neck and radial shaft: avert bone loss and stabilized bone density
